What all share (assay type): in vivo
Data set [1] has as its system corn planthopper (Peregrinus maidis (Ashmead)). Briefly: Test C: control of corn planthopper through contact and/or systemic means. The conditions noted are these: for mortality at 50 ppm: Peregrinus maidis, 144 h. As to the method: (§1) Formulation and Spray Methodology for Tests A-H
(§2) Test compounds were formulated using a solution containing 10% acetone, 90% water and 300 ppm Activator 90® non-ionic surfactant (Loveland Products, Loveland, Colo., USA). The formulated compounds were applied in 1 mL of liquid through an atomizer nozzle positioned 1.27 cm (0.5 inches) above the top of each test unit. Test compounds were sprayed at the rates indicated, and each test was replicated three times.
For evaluating control of corn planthopper (Peregrinus maidis (Ashmead)) through contact and/or systemic means, the test unit consisted of a small open container with a 3-4-day-old corn (maize) plant inside. White sand was added to the top of the soil prior to application of the test compound.
Test compounds were formulated and sprayed at 50 and 10 ppm. After spraying of the formulated test compound, the test units were allowed to dry for 1 h before they were post-infested with ˜15-20 nymphs (18-to-21-day-old). A black, screened cap was placed on the top of each test unit, and the test units were held for 6 days in a growth chamber at 22-24° C. and 50-70% relative humidity. Each test unit was then visually assessed for insect mortality.

Data set [2] concerns green peach aphid (Myzus persicae (Sulzer)). Put plainly: Test E: control of green peach aphid through contact and/or systemic means. Conditions: 144 h. As for the experimental part:
as §1, §2
For evaluating control of green peach aphid (Myzus persicae (Sulzer)) through contact and/or systemic means, the test unit consisted of a small open container with a 12-15-day-old radish plant inside. This was pre-infested by placing on a leaf of the test plant 30-40 aphids on a piece of leaf excised from a culture plant (cut-leaf method). The aphids moved onto the test plant as the leaf piece desiccated. After pre-infestation, the soil of the test unit was covered with a layer of sand.
Test compounds were formulated and sprayed at 250, 50 and 10 ppm. After spraying of the formulated test compound, each test unit was allowed to dry for 1 hour and then a black, screened cap was placed on top. The test units were held for 6 days in a growth chamber at 19-21° C. and 50-70% relative humidity. Each test unit was then visually assessed for insect mortality.

For data set [3], the system named is cotton melon aphid (Aphis gossypii (Glover)). Briefly: Test F: control of cotton melon aphid through contact and/or systemic means. The conditions noted are these: 144 h. As to the method: as §1, §2
[…] This was pre-infested with 30-40 insects on a piece of leaf according to the cut-leaf method, and the soil of the test unit was covered with a layer of sand.
Test compounds were formulated and sprayed at 250, 50 and 10 ppm. After spraying, the test units were maintained in a growth chamber for 6 days at 19° C. and 70% relative humidity. Each test unit was then visually assessed for insect mortality.

The test system of data set [4] is potato leafhopper (Empoasca fabae (Harris)). Briefly: Test D: control of potato leafhopper through contact and/or systemic means. Conditions: 144 h. As for the experimental part: as §1, §2
[…] White sand was added to the top of the soil, and one of the primary leaves was excised prior to application of the test compound.
Test compounds were formulated and sprayed at 250, 50 and 10 ppm. After spraying of the formulated test compound, the test units were allowed to dry for 1 hour before they were post-infested with 5 potato leafhoppers (18-to-21-day-old adults). A black, screened cap was placed on the top of the test unit, and the test units were held for 6 days in a growth chamber at 20° C. and 70% relative humidity. Each test unit was then visually assessed for insect mortality.

Data set [5] relates to sweetpotato whitefly (Bemisia tabaci (Gennadius)). Briefly: Test G: control of sweetpotato whitefly through contact and/or systemic means. The conditions noted are these: 312 h. As to the method:
as §1, §2
For evaluating control of the sweetpotato whitefly (Bemisia tabaci (Gennadius)) through contact and/or systemic means, the test unit consisted of a small open container with a 12-14-day-old cotton plant inside. Prior to the spray application, both cotyledons were removed from the plant, leaving one true leaf for the assay. Adult whiteflies were allowed to lay eggs on the plant and then were removed from the test unit. Cotton plants infested with at least 15 eggs were submitted to the test for spraying.
Test compounds were formulated and sprayed at 250, 50 and 10 ppm. After spraying, the test units were allowed to dry for 1 hour. The cylinders were then removed, and the units were taken to a growth chamber and held for 13 days at 28° C. and 50-70% relative humidity. Each test unit was then visually assessed for insect mortality.

The mark [6] stands for this setting: 50 ppm spray, 6 days, read-out: mortality.
[7] abbreviates: 10 ppm spray, 6 days, read-out: mortality.
Where [8] appears, read: 50 ppm spray, 13 days, read-out: mortality.

Where two headings read alike, the source gives them in different places.

What is called mortality is the share of the test organisms that died. On to `O=C(NCc1ncccn1)c1ccc(C2=NOC(c3cccc(C(F)(F)F)c3)(C(F)(F)F)C2)c2ccncc12` (centres unmarked) [Compound 18], for which the mortality at 50 ppm in data set [1] (setting [6]), in data set [2] (setting [6]) and in data set [3] (setting [6]) was ≥ 80% throughout. In addition, in data set [2] (setting [7]), the mortality at 10 ppm is ≥ 80%.
As to `O=C(NC1CC1)c1ccc(C2=NOC(c3ccc(F)c(C(F)(F)F)c3)(C(F)(F)F)C2)c2ccncc12` (centres unmarked) [Compound 55, N-cyclopropyl-5-[5-[4-fluoro-3-(trifluoromethyl)phenyl]-4,5-dihydro-5-(trifluoromethyl)-3-isoxazolyl]-8-isoquinolinecarboxamide], the mortality at 50 ppm in data set [1] (setting [6]) was ≥ 80%; in data set [4] (setting [6]), ≥ 80%; in data set [2] (setting [6]), ≥ 80%; in data set [3] (setting [6]), ≥ 80%; in data set [5] (setting [8]) it was ≥ 50%. Moreover, the mortality at 10 ppm in data set [3] (setting [7]) was ≥ 80%; in data set [5] (10 ppm spray, 13 days, read-out: mortality), ≥ 50%.
Take `CC(C)NC(=O)c1ccc(C2=NOC(c3cc(Cl)c(F)c(Cl)c3)(C(F)(F)F)C2)c2ccncc12` (centres unmarked) [Compound 28]: the mortality at 50 ppm in data set [4] is ≥ 80%; in data set [2] it was ≥ 80%; in data set [3], ≥ 80%; in data set [5] it was ≥ 50%. Besides, the mortality at 10 ppm in data set [2] is ≥ 80%; in data set [3], ≥ 80%; in data set [5], ≥ 50%.
Regarding `O=C(NCC1CC1)c1ccc(C2=NOC(c3ccc(F)c(C(F)(F)F)c3)(C(F)(F)F)C2)c2ccncc12` (centres unmarked) [Compound 58, N-(cyclopropylmethyl)-5-[5-[4-fluoro-3-(trifluoromethyl)phenyl]-4,5-dihydro-5-(trifluoromethyl)-3-isoxazolyl]-8-isoquinolinecarboxamide], the mortality at 50 ppm in data set [1] (setting [6]) was ≥ 80%; in data set [4] (setting [6]) it was ≥ 80%; in data set [2] (setting [6]), ≥ 80%; in data set [3] (setting [6]) it was ≥ 80%; in data set [5] (setting [8]), ≥ 50%. Also, the mortality at 10 ppm in data set [2] (setting [7]) and in data set [3] (setting [7]) was ≥ 80% throughout.
As for `C[C@@H](NC(=O)c1ccc(C2=NOC(c3cc(Cl)c(F)c(Cl)c3)(C(F)(F)F)C2)c2ccncc12)c1ccccn1` (some centres unmarked) [Compound 13], the mortality at 10 ppm is ≥ 80% in data set [4], ≥ 80% in data set [2], ≥ 80% in data set [3] and ≥ 50% in data set [5]. In addition, the mortality at 50 ppm is ≥ 80% in data set [4], ≥ 80% in data set [2], ≥ 80% in data set [3] and ≥ 50% in data set [5].
As to `C#CCNC(=O)c1ccc(C2=NOC(c3ccc(F)c(C(F)(F)F)c3)(C(F)(F)F)C2)c2ccncc12` (centres unmarked) [Compound 74, 5-[5-[4-fluoro-3-(trifluoromethyl)phenyl]-4,5-dihydro-5-(trifluoromethyl)-3-isoxazolyl]-N-2-propyn-1-yl-8-isoquinolinecarboxamide], the mortality at 50 ppm in data set [1] (setting [6]) was ≥ 80%; in data set [4] (setting [6]), ≥ 80%; in data set [2] (setting [6]), ≥ 80%; in data set [3] (setting [6]), ≥ 80%; in data set [5] (setting [8]) it was ≥ 50%.
Turning to `O=C(NCc1ncccn1)c1ccc(C2=NOC(c3ccc(F)c(C(F)(F)F)c3)(C(F)(F)F)C2)c2ccncc12` (centres unmarked) [Compound 76], in data set [1] (10 ppm spray, 6 days), the mortality entry is listed as “at least 80%”.
Take `O=C(NCc1cnccn1)c1ccc(C2=NOC(c3cc(Cl)c(F)c(Cl)c3)(C(F)(F)F)C2)c2ccncc12` (centres unmarked) [Compound 7]: the mortality at 50 ppm in data set [4] is ≥ 80%; in data set [2], ≥ 80%; in data set [3] it was ≥ 80%; in data set [5], ≥ 50%.
Turning to `COCC(C)NC(=O)c1ccc(C2=NOC(c3cc(Cl)c(F)c(Cl)c3)(C(F)(F)F)C2)c2ccncc12` (centres unmarked) [Compound 20], the mortality at 50 ppm was ≥ 80% in data set [4], ≥ 80% in data set [2], ≥ 80% in data set [3] and ≥ 50% in data set [5]. For the same compound, the mortality at 10 ppm in data set [2] is ≥ 80%; in data set [3], ≥ 80%; in data set [5] it was ≥ 50%.
Turning to `N#CC1(CNC(=O)c2ccc(C3=NOC(c4cc(Cl)c(F)c(Cl)c4)(C(F)(F)F)C3)c3ccncc23)CC1` (centres unmarked) [Compound 10], the mortality at 50 ppm in data set [4] is ≥ 80%; in data set [2], ≥ 80%; in data set [3] it was ≥ 80%; in data set [5], ≥ 50%. Besides, the mortality at 10 ppm in data set [5] is ≥ 50%.
On to `C#CCNC(=O)c1ccc(C2=NOC(c3cc(Cl)c(F)c(Cl)c3)(C(F)(F)F)C2)c2ccncc12` (centres unmarked) [Compound 48, 5-[5-(3,5-dichloro-4-fluorophenyl)-4,5-dihydro-5-(trifluoromethyl)-3-isoxazolyl]-N-2-propyn-1-yl-8-isoquinolinecarboxamide], for which the mortality at 50 ppm in data set [1], in data set [4], in data set [2] and in data set [3] was ≥ 80% each time.
For the compound `O=C(NCC1CC1)c1ccc(C2=NOC(c3cc(Cl)cc(C(F)(F)F)c3)(C(F)(F)F)C2)c2ccncc12` (centres unmarked) [Compound 36, 5-[5-[3-chloro-5-(trifluoromethyl)phenyl]-4,5-dihydro-5-(trifluoromethyl)-3-isoxazolyl]-N-(cyclopropylmethyl)-8-isoquinolinecarboxamide], the mortality at 10 ppm in data set [4] was ≥ 80%; in data set [2], ≥ 80%; in data set [3], ≥ 80%; in data set [5], ≥ 50%. The mortality at 50 ppm was ≥ 80% in data set [4], ≥ 80% in data set [2], ≥ 80% in data set [3] and ≥ 50% in data set [5].
As to `O=C(NC1CC1)c1ccc(C2=NOC(c3cc(Cl)cc(C(F)(F)F)c3)(C(F)(F)F)C2)c2ccncc12` (centres unmarked) [Compound 35, 5-[5-[3-chloro-5-(trifluoromethyl)phenyl]-4,5-dihydro-5-(trifluoromethyl)-3-isoxazolyl]-N-cyclopropyl-8-isoquinolinecarboxamide], the mortality at 50 ppm in data set [1] is ≥ 80%; in data set [4], ≥ 80%; in data set [2], ≥ 80%; in data set [3], ≥ 80%; in data set [5], ≥ 50%. Further, the mortality at 10 ppm in data set [4] is ≥ 80%; in data set [2] it was ≥ 80%; in data set [3], ≥ 80%; in data set [5] it was ≥ 50%.
In the case of `CSCCNC(=O)c1ccc(C2=NOC(c3cccc(C(F)(F)F)c3)(C(F)(F)F)C2)c2ccncc12` (centres unmarked) [Compound 29], the mortality at 50 ppm in data set [1] (setting [6]), in data set [2] (setting [6]) and in data set [3] (setting [6]) was ≥ 80% throughout.
Turning to `O=C(NCc1ncccn1)c1ccc(C2=NOC(c3cc(Cl)c(F)c(Cl)c3)(C(F)(F)F)C2)c2ccncc12` (centres unmarked) [Compound 4, 5-[5-(3,5-dichloro-4-fluorophenyl)-4,5-dihydro-5-(trifluoromethyl)-3-isoxazolyl]-N-(2-pyrimidinylmethyl)-8-isoquinolinecarboxamide], the mortality at 50 ppm in data set [1] is ≥ 80%; in data set [4] it was ≥ 80%; in data set [2], ≥ 80%; in data set [3] it was ≥ 80%; in data set [5], ≥ 50%. In addition, the mortality at 10 ppm in data set [3] was ≥ 80%; in data set [5] it was ≥ 50%.

Values taken from US20220041582A1, “ISOXAZOLINE COMPOUNDS FOR CONTROLLING INVERTEBRATE PESTS” (FMC Corporation, priority 2018, published 2022).
